What all share (type): cell-based
For one test, the target named is T1, human TLR9 (Homo sapiens, UniProt Q9NR96).
T1 construct: host or cells: HEK-Blue cells (HEK293-derived reporter line)
T1 sequence (Q9NR96 26-1032): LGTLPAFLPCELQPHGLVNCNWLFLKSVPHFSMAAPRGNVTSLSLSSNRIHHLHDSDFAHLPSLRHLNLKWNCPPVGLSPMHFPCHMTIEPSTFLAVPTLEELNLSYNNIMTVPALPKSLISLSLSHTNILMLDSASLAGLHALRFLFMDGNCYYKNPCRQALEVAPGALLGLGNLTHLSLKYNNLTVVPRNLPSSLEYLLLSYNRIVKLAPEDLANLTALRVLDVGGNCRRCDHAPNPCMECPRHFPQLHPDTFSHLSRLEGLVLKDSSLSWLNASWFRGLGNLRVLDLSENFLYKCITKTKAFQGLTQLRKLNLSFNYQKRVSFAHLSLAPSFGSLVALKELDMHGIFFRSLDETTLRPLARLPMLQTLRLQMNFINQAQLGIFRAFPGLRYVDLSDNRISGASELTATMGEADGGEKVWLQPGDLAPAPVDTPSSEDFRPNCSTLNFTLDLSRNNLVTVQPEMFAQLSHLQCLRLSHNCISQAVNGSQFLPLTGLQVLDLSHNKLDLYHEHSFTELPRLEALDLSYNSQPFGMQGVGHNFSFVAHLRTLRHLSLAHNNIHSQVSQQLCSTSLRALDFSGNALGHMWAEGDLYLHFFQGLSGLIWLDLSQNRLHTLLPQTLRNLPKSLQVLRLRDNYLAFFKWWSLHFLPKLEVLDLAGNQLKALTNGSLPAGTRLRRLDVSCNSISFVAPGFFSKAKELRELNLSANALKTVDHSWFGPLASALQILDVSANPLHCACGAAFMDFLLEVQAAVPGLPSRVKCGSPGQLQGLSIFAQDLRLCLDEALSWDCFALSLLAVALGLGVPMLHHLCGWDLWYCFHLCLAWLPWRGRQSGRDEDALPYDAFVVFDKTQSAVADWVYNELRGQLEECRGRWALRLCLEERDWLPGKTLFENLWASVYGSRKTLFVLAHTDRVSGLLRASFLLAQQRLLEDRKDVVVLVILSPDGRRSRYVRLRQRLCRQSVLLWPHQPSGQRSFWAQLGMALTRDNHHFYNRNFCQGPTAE
Briefly: TLR9 inhibition reporter assay (HEK-Blue cells, secreted embryonic alkaline phosphatase reporter). The conditions noted are these: HEK-Blue cells overexpressing human TLR9, stimulated with ODN2006 5 nM. In a few lines:
(§1)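 Inhibitors are tested in dose response (0.05 nM–50 μM) on HEK-Blue reporter cells expressing human TLR7, TLR8 or TLR9. After 30 min at room temperature, each line is stimulated with its own agonist (gardiquimod 7.5 μM, R848 15.9 μM or ODN2006 5 nM, final) and SEAP is measured 22 h later.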

The target of a further test is T2, human TLR7 (Homo sapiens, UniProt Q9NYK1).
T2 construct: host or cells: HEK-Blue cells (HEK293-derived reporter line)
T2 sequence (Q9NYK1 27-1049): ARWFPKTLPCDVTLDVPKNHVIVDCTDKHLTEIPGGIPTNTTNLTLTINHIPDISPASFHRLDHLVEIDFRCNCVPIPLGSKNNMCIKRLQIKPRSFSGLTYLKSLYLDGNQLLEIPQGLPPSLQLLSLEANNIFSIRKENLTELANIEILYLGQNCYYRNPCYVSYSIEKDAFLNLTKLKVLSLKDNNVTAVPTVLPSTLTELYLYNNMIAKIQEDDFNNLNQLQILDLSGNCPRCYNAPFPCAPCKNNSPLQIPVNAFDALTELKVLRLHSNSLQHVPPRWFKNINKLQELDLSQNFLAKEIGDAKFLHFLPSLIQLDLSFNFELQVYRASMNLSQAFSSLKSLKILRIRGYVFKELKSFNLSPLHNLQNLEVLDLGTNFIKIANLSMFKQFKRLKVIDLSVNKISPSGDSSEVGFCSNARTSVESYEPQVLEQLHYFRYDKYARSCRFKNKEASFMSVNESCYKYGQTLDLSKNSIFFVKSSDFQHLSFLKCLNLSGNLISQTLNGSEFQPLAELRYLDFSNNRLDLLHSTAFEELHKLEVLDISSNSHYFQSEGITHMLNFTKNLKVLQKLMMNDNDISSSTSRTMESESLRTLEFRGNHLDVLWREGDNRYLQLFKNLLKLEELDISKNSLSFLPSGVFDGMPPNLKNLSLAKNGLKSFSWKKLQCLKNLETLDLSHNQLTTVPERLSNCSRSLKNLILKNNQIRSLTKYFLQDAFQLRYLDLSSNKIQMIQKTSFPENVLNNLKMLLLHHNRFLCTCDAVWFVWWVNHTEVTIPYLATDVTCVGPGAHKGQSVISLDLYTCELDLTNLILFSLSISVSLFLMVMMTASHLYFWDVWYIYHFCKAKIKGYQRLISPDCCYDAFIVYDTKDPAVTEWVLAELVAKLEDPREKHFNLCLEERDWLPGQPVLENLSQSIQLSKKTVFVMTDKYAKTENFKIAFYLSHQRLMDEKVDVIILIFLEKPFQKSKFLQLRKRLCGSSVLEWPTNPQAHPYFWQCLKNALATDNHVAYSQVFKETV
The test can be described thus: TLR7 inhibition reporter assay (HEK-Blue cells, secreted embryonic alkaline phosphatase reporter). The conditions noted are these: HEK-Blue cells overexpressing human TLR7, stimulated with gardiquimod 7.5 μM; read-out: TLR 7 IC50. In a few lines: as §1

Another test concerns the target T3, human TLR8 (Homo sapiens, UniProt Q9NR97).
T3 construct: host or cells: HEK-Blue cells (HEK293-derived reporter line)
T3 sequence (Q9NR97 27-1041): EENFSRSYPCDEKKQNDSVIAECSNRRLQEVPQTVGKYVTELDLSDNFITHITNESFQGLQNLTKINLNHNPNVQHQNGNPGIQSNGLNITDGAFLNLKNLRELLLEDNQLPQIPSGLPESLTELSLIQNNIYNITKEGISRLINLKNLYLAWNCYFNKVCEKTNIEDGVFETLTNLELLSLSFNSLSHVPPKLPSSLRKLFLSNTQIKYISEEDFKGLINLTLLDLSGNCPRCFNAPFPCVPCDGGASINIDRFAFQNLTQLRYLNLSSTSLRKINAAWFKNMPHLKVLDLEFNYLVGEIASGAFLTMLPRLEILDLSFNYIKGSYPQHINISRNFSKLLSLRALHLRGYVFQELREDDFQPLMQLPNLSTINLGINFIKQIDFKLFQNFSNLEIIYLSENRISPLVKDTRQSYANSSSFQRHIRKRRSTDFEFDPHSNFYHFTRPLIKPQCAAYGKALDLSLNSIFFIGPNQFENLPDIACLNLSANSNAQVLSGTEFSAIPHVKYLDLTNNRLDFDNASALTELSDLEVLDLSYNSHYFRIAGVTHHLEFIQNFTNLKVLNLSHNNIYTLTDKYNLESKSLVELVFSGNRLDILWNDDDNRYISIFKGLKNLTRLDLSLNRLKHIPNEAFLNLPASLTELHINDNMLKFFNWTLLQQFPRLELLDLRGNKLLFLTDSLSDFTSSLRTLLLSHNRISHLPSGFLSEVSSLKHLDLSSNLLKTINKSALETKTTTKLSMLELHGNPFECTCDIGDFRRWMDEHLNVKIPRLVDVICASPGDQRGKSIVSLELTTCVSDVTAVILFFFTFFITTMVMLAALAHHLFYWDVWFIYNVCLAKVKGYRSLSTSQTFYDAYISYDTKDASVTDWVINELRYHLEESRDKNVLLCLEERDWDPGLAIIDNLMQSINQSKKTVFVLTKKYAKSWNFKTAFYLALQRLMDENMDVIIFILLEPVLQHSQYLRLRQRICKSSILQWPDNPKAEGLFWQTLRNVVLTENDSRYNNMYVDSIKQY
The test can be described thus: TLR8 inhibition reporter assay (HEK-Blue cells, secreted embryonic alkaline phosphatase reporter). The conditions noted are these: HEK-Blue cells overexpressing human TLR8, stimulated with R848 15.9 μM; read-out: TLR 8 IC50. The essentials: as §1

Setting [1] is: 22 hour incubation, reporter readout.

pIC50: −log10 of the molar value. Where two headings read alike, the source gives them in different places. A value given as a limit tells only on which side of the number the result lay.

On to `Cc1cc(-c2ccc(CN3CC4(CN(C)C4)C3)cc2)cc2c1nc(-c1ccc(S(C)(=O)=O)cc1)n2C` [Example 370, 1,4-dimethyl-6-(4-((6-methyl-2,6-diazaspiro[3.3]heptan-2-yl)methyl)phenyl)-2-(4-(methylsulfonyl)phenyl)-1H-benzo[d]imidazole], for which the pIC50 against human TLR9 (setting [1]) is 7.25; at human TLR7, 5.74; on human TLR8, 5.35.

In the case of `Cc1cc(-c2ccc(CN3CC4(C3)CN(CC(C)C)C4)cc2)cc2c1nc(-c1ccc(S(C)(=O)=O)cc1)n2C` [Example 371, 6-(4-((6-isobutyl-2,6-diazaspiro[3.3]heptan-2-yl)methyl)phenyl)-1,4-dimethyl-2-(4-(methylsulfonyl)phenyl)-1H-benzo[d]imidazole], the pIC50 at human TLR9 (setting [1]) was 7.26; at human TLR7, 5.74; at human TLR8, 5.17.

For `Cc1cc(-c2ccc(CN3CCC(N4CCCC4)CC3)cc2)cc2c1nc(-c1ccc(S(C)(=O)=O)cc1)n2C1CC1` [Example 372, 1-cyclopropyl-4-methyl-2-(4-(methylsulfonyl)phenyl)-6-(4-((4-(pyrrolidin-1-yl)piperidin-1-yl)methyl)phenyl)-1H-benzo[d]imidazole], the pIC50 is 7.27 on human TLR9 (setting [1]), 5.85 at human TLR7 and 5.29 at human TLR8.

Consider `CN(C)C1CCN(Cc2ccc(-c3ccc4nc(-c5ccccc5)n(C)c4c3)cc2)CC1` [Example 374, N,N-dimethyl-1-(4-(1-methyl-2-phenyl-1H-benzo[d]imidazol-6-yl)benzyl)piperidin-4-amine], for which the pIC50 is 6.55 against human TLR9 (setting [1]), 6.55 at human TLR9 (read-out: TLR 9 IC50), 6.10 on human TLR7 and less than 4.30 at human TLR8.

As to `CN(C)C1CCN(Cc2ccc(-c3ccc4nc(-c5ccc(S(C)(=O)=O)cc5)n(C)c4c3)cc2)CC1` [Example 375, N,N-dimethyl-1-(4-(1-methyl-2-(4-(methylsulfonyl)phenyl)-1H-benzo[d]imidazol-6-yl)benzyl)piperidin-4-amine], the pIC50 against human TLR9 (setting [1]) was 6.70; on human TLR9 (read-out: TLR 9 IC50) it was 6.69; at human TLR7, 5.89; at human TLR8, 6.40.

On to `COc1ccc(-c2nc3ccc(-c4ccc(CN5CCC(N(C)C)CC5)cc4)cc3n2C)cc1` [Example 376, 1-(4-(2-(4-methoxyphenyl)-1-methyl-1H-benzo[d]imidazol-6-yl)benzyl)-N,N-dimethylpiperidin-4-amine], for which the pIC50 against human TLR9 (setting [1]) was 6.68; at human TLR9 (read-out: TLR 9 IC50) it was 6.69; at human TLR7, 6.10; at human TLR8, 5.85.

Regarding `CN(C)C1CCN(Cc2ccc(-c3ccc4nc(-c5cccc(F)c5)n(C)c4c3)cc2)CC1` [Example 377, 1-(4-(2-(3-fluorophenyl)-1-methyl-1H-benzo[d]imidazol-6-yl)benzyl)-N,N-dimethylpiperidin-4-amine], the pIC50 was 6.46 against human TLR9 (setting [1]), 6.46 at human TLR9 (read-out: TLR 9 IC50), 5.89 on human TLR7 and 4.71 at human TLR8.

On to `CN(C)C1CCN(Cc2ccc(-c3ccc4nc(-c5ccc(F)cc5)n(C)c4c3)cc2)CC1` [Example 378, 1-(4-(2-(4-fluorophenyl)-1-methyl-1H-benzo[d]imidazol-6-yl)benzyl)-N,N-dimethylpiperidin-4-amine], for which the pIC50 at human TLR9 (setting [1]) is 6.46; at human TLR9 (read-out: TLR 9 IC50), 6.46; at human TLR7, 5.66; at human TLR8 it was 4.77.

Regarding `CN(C)C1CCN(Cc2ccc(-c3ccc4nc(-c5ccccc5S(C)(=O)=O)n(C)c4c3)cc2)CC1` [Example 379, N,N-dimethyl-1-(4-(1-methyl-2-(2-(methylsulfonyl)phenyl)-1H-benzo[d]imidazol-6-yl)benzyl)piperidin-4-amine], the pIC50 is 7.01 at human TLR9 (setting [1]), 7.01 on human TLR9 (read-out: TLR 9 IC50), 6.00 on human TLR7 and 4.73 at human TLR8.

On to `CN(C)C1CCN(Cc2ccc(-c3ccc4nc(-c5ccc(S(C)(=O)=O)cc5F)n(C)c4c3)cc2)CC1` [Example 380, 1-(4-(2-(2-fluoro-4-(methylsulfonyl)phenyl)-1-methyl-1H-benzo[d]imidazol-6-yl)benzyl)-N,N-dimethylpiperidin-4-amine], for which the pIC50 was 6.76 against human TLR9 (setting [1]), 6.76 at human TLR9 (read-out: TLR 9 IC50), 5.89 at human TLR7 and 6.52 at human TLR8.

Take `CN(C)C1CCN(Cc2ccc(-c3ccc4nc(-c5ccc(C#N)cc5)n(C)c4c3)cc2)CC1` [Example 383, 4-(6-(4-((4-(dimethylamino)piperidin-1-yl)methyl)phenyl)-1-methyl-1H-benzo[d]imidazol-2-yl)benzonitrile]: the pIC50 against human TLR9 (setting [1]) was 7.17; at human TLR9 (read-out: TLR 9 IC50) it was 7.17; at human TLR7, 5.66; on human TLR8, 5.64.

For the origin of these results see patent publication US12492188B2, “1H-benzo[D]imidazole derivatives as TLR9 inhibitors for the treatment of fibrosis” (BRISTOL-MYERS SQUIBB COMPANY, priority 2020, dated 2025).
